System: INS1E cells
Assay type: cell-based, rat

Structure (SMILES)	portion of ADP stimulated respiration that is oligomycin sensitive	digitonin concentration giving maximal and sustained ADP-stimulated respiration
CC[C@H]1/C=C/C=C/C[C@@H](C)[C@H](O)[C@@](C)(O)C(=O)[C@@H](C)[C@H](O)[C@@H](C)C(=O)[C@@H](C)[C@H](O)[C@@H](C)/C=C/C(=O)O[C@@H]2[C@H](C)[C@H](CC1)O[C@]1(CC[C@H](C)[C@H](C[C@@H](C)O)O1)[C@H]2C [oligomycin]	~75%	–
C[C@@H]1CC[C@@]2(OC1)O[C@H]1[C@@H](O)[C@H]3[C@@H]4CC[C@H]5C[C@@H](O[C@@H]6O[C@H](CO)[C@H](O[C@@H]7O[C@H](CO)[C@@H](O)[C@H](O[C@@H]8OC[C@@H](O)[C@H](O)[C@H]8O)[C@H]7O[C@@H]7O[C@H](CO)[C@H](O)[C@H](O[C@@H]8O[C@H](CO)[C@@H](O)[C@H](O)[C@H]8O)[C@H]7O)[C@H](O)[C@H]6O)[C@H](O)C[C@]5(C)[C@H]4CC[C@]3(C)[C@H]1[C@@H]2C [digitonin]	–	0.01%
